{"source": "patent US4470977A", "about": "“Antiemetic and antipsychotic agents” (Adria Laboratories, Inc., priority 1982, dated 1984)", "key": {"dopaminergic receptors": {"system": "dopaminergic receptors", "assay": "Antagonism to Apomorphine Induced Climbing Behavior", "type": "in vivo, mouse", "settings": "for Antagonism (20 min. After): 20 minutes after 1 mg/kg s.c. apomorphine, doses 6.25 to 100 mg/kg; for Antagonism (20 min. After) / ED50: mouse; for ED50: antagonism to apomorphine (1 mg/kg s.c.) induced climbing behavior, p.o.; for apomorphine induced climbing behavior (in words): indicator of antipsychotic activity", "text": "The effect of each of the compounds in Table 1 on apomorphine induced climbing behavior related to stimulation of dopaminergic receptors was studied under the experimental conditions described by Costetin et al, 1975, Rapid and Dissociated Changes in Sensitivities of Different Dopamine Receptors in Mouse Brain, Nature, 257, 405."}, "mammary gland": {"system": "mammary gland", "assay": "Effect of Sulpiride and Sulpiride Analogs on Mammary Gland Development in Female Sprague Dawley Rats", "type": "in vivo", "settings": "for Number of Animals with Mammary Hypertrophy: n = 6 female Sprague Dawley rats, 0.02% drug in chow, 14 days", "text": "The animals were individually caged during the 14-day study, with rat chow and tap water permitted ad libitum. The rat chow fed to the control group contained no drug, while that fed to the other groups contained 0.02% drug. Food cups were weighed and refilled on day 7 during the study. On day 14 of the study, the animals were sacrificed by asphyxiation in a CO2 atmosphere and then were weighed. The abdominal skin was cut along the midline from the pelvis to the sternum and separated from underlying tissues by blunt dissection. Each animal was then examined grossly for mammary gland enlargement."}, "[1]": {"system": "medullary chemoreceptor trigger zone (CTZ)", "assay": "Antiemetic Screen: Antagonism to Apomorphine Induced Emesis In the Dog", "type": "in vivo, beagle dogs", "set-up": "key to Antagonism to Apomorphine Induced Emesis: If both animals receiving a particular treatment are protected (i.e., no emetic response within one hour after apomorphine), the test compound is defined as active (+)", "settings": "for Antagonism to Apomorphine Induced Emesis: 10 mg/kg sc, beagle dogs, 0.1 mg/kg sc apomorphine HCl one hour later", "protocol": "Each compound is administered subcutaneously (sc) to two beagle dogs at 10.0 mg/kg. One hour following administration of the test compound, each animal receives 0.1 mg/kg, sc, of apomorphine HCl. Apomorphine consistently evokes an immediate emetic response through direct dopaminergic interaction at the medullary chemoreceptor trigger zone (CTZ). Antiemetic compounds which act at the CTZ and/or the midbrain vomiting center will block this effect of apomorphine. If both animals receiving a particular treatment are protected (i.e., no emetic response within one hour after apomorphine), the test compound is defined as active (+). In instances where protection is observed in only 1 of the 2 animals, the experiment is repeated in two additional animals and the results of the two tests are combined. Compounds which protect 3 out of 4 animals are then defined as active. The results are shown in Table 4 below and indicate that each of the invention compounds is active against emesis."}, "dopamine receptors": {"system": "dopamine receptors", "settings": "cited from earlier work"}}, "data": [{"smiles": "CCN1CCCC1CNC(=O)c1cccc(Cl)c1OC", "note": "(stereo not drawn) [Compound 1, 3-chloro-N-(1-ethyl-2-pyrrolidinylmethyl)-2-methoxybenzamide]", "values": [{"measurement": "Antagonism (20 min. After)", "setting": "dopaminergic receptors", "value": "Yes"}, {"measurement": "ED50", "setting": "dopaminergic receptors", "value": "26.8 (20.7-38.5) mg/kg p.o."}, {"measurement": "apomorphine induced climbing behavior (in words)", "setting": "dopaminergic receptors", "value": "suppress apomorphine induced climbing behavior"}, {"measurement": "mammary hypertrophy (in words)", "setting": "mammary gland", "value": "without mammary hypertrophy"}, {"measurement": "Number of Animals with Mammary Hypertrophy", "setting": "mammary gland", "value": 0, "unit": "animals"}, {"measurement": "antiemetic effect (in words)", "setting": "[1]", "value": "possess an antiemetic effect"}, {"measurement": "Antagonism to Apomorphine Induced Emesis", "setting": "[1]", "value": "+"}]}, {"smiles": "CCN1CCCC1CNC(=O)c1ccc(Cl)cc1OC", "note": "(stereo not drawn) [Compound 2, 4-chloro-N-(1-ethyl-2-pyrrolidinylmethyl)-2-methoxybenzamide]", "values": [{"measurement": "Antagonism (20 min. After)", "setting": "dopaminergic receptors", "value": "Yes"}, {"measurement": "apomorphine induced climbing behavior (in words)", "setting": "dopaminergic receptors", "value": "suppress apomorphine induced climbing behavior"}, {"measurement": "mammary hypertrophy (in words)", "setting": "mammary gland", "value": "without mammary hypertrophy"}, {"measurement": "Number of Animals with Mammary Hypertrophy", "setting": "mammary gland", "value": 0, "unit": "animals"}, {"measurement": "antiemetic effect (in words)", "setting": "[1]", "value": "possess an antiemetic effect"}, {"measurement": "Antagonism to Apomorphine Induced Emesis", "setting": "[1]", "value": "+"}]}, {"smiles": "CCN1CCCC1CNC(=O)c1cc(Cl)ccc1OC", "note": "(stereo not drawn) [Compound 3, 5-chloro-N-(1-ethyl-2-pyrrolidinylmethyl)-2-methoxybenzamide]", "values": [{"measurement": "Antagonism (20 min. After)", "setting": "dopaminergic receptors", "value": "Yes"}, {"measurement": "apomorphine induced climbing behavior (in words)", "setting": "dopaminergic receptors", "value": "suppress apomorphine induced climbing behavior"}, {"measurement": "mammary hypertrophy (in words)", "setting": "mammary gland", "value": "without mammary hypertrophy"}, {"measurement": "Number of Animals with Mammary Hypertrophy", "setting": "mammary gland", "value": 0, "unit": "animals"}, {"measurement": "antiemetic effect (in words)", "setting": "[1]", "value": "possess an antiemetic effect"}, {"measurement": "Antagonism to Apomorphine Induced Emesis", "setting": "[1]", "value": "+"}]}, {"smiles": "CCN1CCCC1CNC(=O)c1ccccc1OC", "note": "(stereo not drawn) [Compound 4, N-(1-ethyl-2-pyrrolidinylmethy)-2-methoxybenzamide]", "values": [{"measurement": "Antagonism (20 min. After)", "setting": "dopaminergic receptors", "value": "Yes"}, {"measurement": "apomorphine induced climbing behavior (in words)", "setting": "dopaminergic receptors", "value": "suppress apomorphine induced climbing behavior"}, {"measurement": "mammary hypertrophy (in words)", "setting": "mammary gland", "value": "without mammary hypertrophy"}, {"measurement": "Number of Animals with Mammary Hypertrophy", "setting": "mammary gland", "value": 0, "unit": "animals"}, {"measurement": "antiemetic effect (in words)", "setting": "[1]", "value": "possess an antiemetic effect"}, {"measurement": "Antagonism to Apomorphine Induced Emesis", "setting": "[1]", "value": "+"}]}, {"smiles": "CCN1CCCC1CNC(=O)c1ccc(C)cc1OC", "note": "(stereo not drawn) [Compound 5, N-(1-ethyl-2-pyrrolidinylmethyl)-2-methoxy-4-methylbenzamide]", "values": [{"measurement": "Antagonism (20 min. After)", "setting": "dopaminergic receptors", "value": "Yes"}, {"measurement": "Number of Animals with Mammary Hypertrophy", "setting": "mammary gland", "value": 0, "unit": "animals"}, {"measurement": "Antagonism to Apomorphine Induced Emesis", "setting": "[1]", "value": "+"}]}, {"smiles": "CCN1CCCC1CNC(=O)c1cc(C)ccc1OC", "note": "(stereo not drawn) [Compound 6, N-(1-ethyl-2-pyrrolidinylmethyl)-2-methoxy-5-methylbenzamide]", "values": [{"measurement": "Antagonism (20 min. After)", "setting": "dopaminergic receptors", "value": "Yes"}, {"measurement": "Number of Animals with Mammary Hypertrophy", "setting": "mammary gland", "value": 0, "unit": "animals"}, {"measurement": "Antagonism to Apomorphine Induced Emesis", "setting": "[1]", "value": "+"}]}, {"smiles": "CCN1CCCC1CNC(=O)c1cccc([N+](=O)[O-])c1OC", "note": "(stereo not drawn) [Compound 7, N-(1-ethyl-2-pyrrolidinylmethyl)-2-methoxy-3-nitrobenzamide]", "values": [{"measurement": "Antagonism (20 min. After)", "setting": "dopaminergic receptors", "value": "Yes"}, {"measurement": "Number of Animals with Mammary Hypertrophy", "setting": "mammary gland", "value": 0, "unit": "animals"}, {"measurement": "Antagonism to Apomorphine Induced Emesis", "setting": "[1]", "value": "+"}]}, {"smiles": "CCN1CCCC1CNC(=O)c1cccc(C)c1[N+](=O)[O-]", "note": "(stereo not drawn) [Compound 8, N-(1-ethyl-2-pyrrolidinylmethyl)-3-methyl-2-nitrobenzamide]", "values": [{"measurement": "Antagonism (20 min. After)", "setting": "dopaminergic receptors", "value": "No"}, {"measurement": "Number of Animals with Mammary Hypertrophy", "setting": "mammary gland", "value": 0, "unit": "animals"}, {"measurement": "Antagonism to Apomorphine Induced Emesis", "setting": "[1]", "value": "+"}]}, {"smiles": "CCN1CCCC1CNC(=O)c1ccccc1N", "note": "(stereo not drawn) [Compound 9, 2-amino-N-(1-ethyl-2-pyrrolidinylmethyl)-benzamide]", "values": [{"measurement": "Antagonism (20 min. After)", "setting": "dopaminergic receptors", "value": "Yes"}, {"measurement": "apomorphine induced climbing behavior (in words)", "setting": "dopaminergic receptors", "value": "suppress apomorphine induced climbing behavior"}, {"measurement": "mammary hypertrophy (in words)", "setting": "mammary gland", "value": "without mammary hypertrophy"}, {"measurement": "Number of Animals with Mammary Hypertrophy", "setting": "mammary gland", "value": 0, "unit": "animals"}, {"measurement": "antiemetic effect (in words)", "setting": "[1]", "value": "possess an antiemetic effect"}, {"measurement": "Antagonism to Apomorphine Induced Emesis", "setting": "[1]", "value": "+"}]}, {"smiles": "CCN1CCCC1CNC(=O)c1cccc(C)c1N", "note": "(stereo not drawn) [Compound 10, 2-amino-N-(1-ethyl-2-pyrrolidinylmethyl)-3-methylbenzamide]", "values": [{"measurement": "Antagonism (20 min. After)", "setting": "dopaminergic receptors", "value": "No"}, {"measurement": "Number of Animals with Mammary Hypertrophy", "setting": "mammary gland", "value": 0, "unit": "animals"}, {"measurement": "Antagonism to Apomorphine Induced Emesis", "setting": "[1]", "value": "+"}]}, {"smiles": "CCN1CCCC1CNC(=O)c1cccc(N)c1C", "note": "(stereo not drawn) [Compound 11, 3-amino-N-(1-ethyl-2-pyrrolidinylmethyl)-2-methylbenzamide]", "values": [{"measurement": "Antagonism (20 min. After)", "setting": "dopaminergic receptors", "value": "No"}, {"measurement": "Number of Animals with Mammary Hypertrophy", "setting": "mammary gland", "value": 0, "unit": "animals"}, {"measurement": "Antagonism to Apomorphine Induced Emesis", "setting": "[1]", "value": "+"}]}, {"smiles": "CCN1CCCC1CNC(=O)c1cc(Cl)ccc1Cl", "note": "(stereo not drawn) [Compound 12, 2,5-dichloro-N-(1-ethyl-2-pyrrolidinylmethyl)-benzamide]", "values": [{"measurement": "Antagonism (20 min. After)", "setting": "dopaminergic receptors", "value": "Yes"}, {"measurement": "apomorphine induced climbing behavior (in words)", "setting": "dopaminergic receptors", "value": "suppress apomorphine induced climbing behavior"}, {"measurement": "mammary hypertrophy (in words)", "setting": "mammary gland", "value": "without mammary hypertrophy"}, {"measurement": "Number of Animals with Mammary Hypertrophy", "setting": "mammary gland", "value": 0, "unit": "animals"}, {"measurement": "antiemetic effect (in words)", "setting": "[1]", "value": "possess an antiemetic effect"}, {"measurement": "Antagonism to Apomorphine Induced Emesis", "setting": "[1]", "value": "+"}]}, {"smiles": "CCN1CCCC1CNC(=O)c1cccc(Cl)c1C", "note": "(stereo not drawn) [Compound 13, 3-chloro-N-(1-ethyl-2-pyrrolidinylmethyl)-2-methylbenzamide]", "values": [{"measurement": "Antagonism (20 min. After)", "setting": "dopaminergic receptors", "value": "No"}, {"measurement": "Number of Animals with Mammary Hypertrophy", "setting": "mammary gland", "value": 0, "unit": "animals"}, {"measurement": "Antagonism to Apomorphine Induced Emesis", "setting": "[1]", "value": "+"}]}, {"smiles": "CCN1CCCC1CNC(=O)c1cc(S(N)(=O)=O)ccc1OC", "note": "(stereo not drawn) [Sulpiride, 2-methoxy-N-(1-ethyl-2-pyrrolidinylmethyl)-5-sulfamoyl benzamide, reference compound]", "values": [{"measurement": "Antagonism (20 min. After)", "setting": "dopaminergic receptors", "value": "Yes"}, {"measurement": "ED50", "setting": "dopaminergic receptors", "value": "24.3 (19.3-32.4) mg/kg p.o."}, {"measurement": "mammary hypertrophy (in words)", "setting": "mammary gland", "value": "consistently produce mammary hypertrophy"}, {"measurement": "Number of Animals with Mammary Hypertrophy", "setting": "mammary gland", "value": 6, "unit": "animals"}, {"measurement": "undesirable side effect", "setting": "dopamine receptors", "value": "mammary hypertrophy"}]}]}
